Measured values: patent publication US4451468A, “Acidiferous 17-normal-pentyl sparteine tartaric and fumaric acid salts pharmaceutical compositions thereof” (Kali-Chemie Pharma GmbH, priority 1979, dated 1984)
≈ marks a conversion by molar mass, not a printed value. Structures can show the parent of a compound that is named as a salt.

How the values were obtained:
[1] = tested on: isolated auricle of guinea pigs; experiment: measurement in the isolated auricle (functional refractory period and contraction force), modified method of Govier; details: Cavia porcellus, on the average; for EC (125% of initial value): read-out: FRP: concentration at which the functional refractory period is extended to 125% of the initial values; for IC25: read-out: Force: concentration at which the contraction force is reduced to 75% of the initial values
Method: These values were determined by measurements in the isolated auricle of guinea pigs by the method (modified) of Govier, as described by Govier in J. Pharmacol. exp.

[2] = tested on: mice; experiment: LD50 toxicity measurement on mice, i.p., eight days after a single application; type: in vivo; details: calculated by method of Litchfield
Method: The LD50, i.p. values (μmole/1) were determined by toxicity measurements on mice, eight days after a single application. The LD50 values were calculated by the method of J. P. Litchfield et al., J. Pharmacol. exp. Ther. 96, 99 (1949).

[3] = solubility in water at 22° C.; type: physicochemical
[4] = stability tests (storage at 55° C.; exposure to light) with thin layer chromatography; type: physicochemical; details: salts
Method: In stability tests, no dissociation was found in thin layer chromatographic investigations. One test included storage for one month at 55° C. and as a second test utilized exposure to light (30 hours, rapid light exposure instrument "SUNTEST," Heraeus Co.).

[5] = tested on: humans; details: application to humans; cited from earlier work
[6] = hygroscopicity of crystalline salts; type: physicochemical

SMILES	EC (125% of initial value) [1] [µM]	IC25 [1] [µM]	LD50 i.p. [2] [μmole/1]	solubility [3] [mg/mL]	stability [4]	toxicity in humans [5]	hygroscopicity [6]
CCCCCC1C2CC(CN3CCCCC23)C2CCCCN21 (stereo not drawn) [Pentylsparteine diperchlorate, perchlorate of 17-β-n-pentyl sparteine]	7.7	19.2	283	20 (≈ 65.7 mM)	stable salt	leukopenia, agranulocytosis and aplastic anemia	–
CCCCCC1C2CC(CN3CCCCC23)C2CCCCN21 (single isomer, unassigned) [acidiferous 17-β-n-pentyl sparteine-L(+) tartrate]	9.1	22.1	262	> 1000	–	–	–
C1CCN2C[C@@H]3C[C@@H](CN4CCCC[C@@H]34)[C@H]2C1 [Sparteine Sulfate, sparteine sulfate]	33.9	959	202	–	–	–	–
CCCCCC1C2CC(CN3CCCCC23)C2CCCCN21 (stereo not drawn) [hydrochloride of 17-β-n-pentyl sparteine]	–	–	–	–	–	–	extremely hydroscopic
CCCCCC1C2CC(CN3CCCCC23)C2CCCCN21 (stereo not drawn) [sulfate of 17-β-n-pentyl sparteine]	–	–	–	–	–	–	extremely hydroscopic
CCCCCC1C2CC(CN3CCCCC23)C2CCCCN21 (stereo not shown) [Example 11]	–	–	–	–	–	–	very rapidly dissolved
